From patent US4861788A, “Antibacterial 1-normon-2-yl-heterocyclic compounds” (Beecham Group plc, priority 1983, dated 1989)
Values after ≈ are worked out from the molar mass of the structure shown.

Assays:
M. hyorhinis ATCC 25021 = test: MIC against Mycoplasma in vitro (Friis broth with agarose); assay type: cell-based; conditions: Mesomycoplasma hyorhinis, ATCC25021, 144 h; M. hyorhinis ATCC 25021; 6 days at 37° C; read-out: MIC
M. gallisepticum S6 = test: as above; assay type: cell-based; conditions: Mycoplasmoides gallisepticum, 144 h; M. gallisepticum S6; 6 days at 37° C; read-out: MIC
Past. multocida PA1 = test: MIC against veterinary bacteria in vitro (Diagnostic Sensitivity Test Agar); conditions: Pasteurella multocida, PA1, 18 h
Method: (§2) The activity of the normonyl derivatives of the Examples against various veterinarily important bacteria, was assayed in vitro using two-fold serial dilutions in Diagnostic Sensitivity Test Agar inoculated with 10^4 organisms.

M. bovis NCTC 10131 = test: microbe, parasite or virus in culture; assay type: cell-based; conditions: NCTC10131, 144 h
M. hyorhinis ATCC 23234 = test: MIC against Mycoplasma in vitro (Friis broth with agarose); assay type: cell-based; conditions: Mesomycoplasma hyorhinis, ATCC23234, 144 h; M. hyorhinis ATCC 23234; 6 days at 37° C; read-out: MIC
[1] = test system: M. hyopneumoniae J2206/183^b; test: as above; assay type: cell-based; conditions: Mesomycoplasma hyopneumoniae, 144 h; M. hyopneumoniae J2206/183^b; 6 days at 37° C; read-out: MIC
Past. multocida PA2 = test: MIC against veterinary bacteria in vitro (Diagnostic Sensitivity Test Agar); conditions: Pasteurella multocida, PA2, 18 h
Method: as §2

[2] = test system: Ps. aeruginosa NCTC 10662; test: MIC against human bacteria in vitro (nutrient agar, chocolated horse blood); assay type: cell-based; conditions: Pseudomonas aeruginosa, NCTC10662; human; Ps. aeruginosa NCTC 10662; 18 hours at 37° C; read-out: MIC
Method in brief: (§1)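 Test compounds are serially diluted into blood-supplemented nutrient agar (5% chocolated horse blood). Each strain is then tested against the series, and the MIC is recorded.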

Strep. faecalis I = test: as above; assay type: cell-based; conditions: Enterococcus faecalis; human; Strep. faecalis I; 18 hours at 37° C; read-out: MIC
Method in brief: as §1

Strep. agalactiae 2788-B = test: as above; assay type: cell-based; conditions: Streptococcus agalactiae; human; Strep. agalactiae 2788-B; 18 hours at 37° C; read-out: MIC
Method in brief: as §1

Bacillus subtilis 6633 = test: as above; assay type: cell-based; conditions: human; Bacillus subtilis 6633; 18 hours at 37° C; read-out: MIC
Method in brief: as §1

Sarcina lutea 8340 = test: as above; assay type: cell-based; conditions: Micrococcus luteus; human; Sarcina lutea 8340; 18 hours at 37° C; read-out: MIC
Method in brief: as §1

Staph. aureus W2827 = test: as above; assay type: cell-based; conditions: Staphylococcus aureus; human; Staph. aureus W2827; 18 hours at 37° C; read-out: MIC
Method in brief: as §1

E. coli NCTC 10418 = test: as above; assay type: cell-based; conditions: Escherichia coli, NCTC10418; human; E. coli NCTC 10418; 18 hours at 37° C; read-out: MIC
Method in brief: as §1

Strep. spp. 64/848-C = test: as above; assay type: cell-based; conditions: human; Strep. spp. 64/848-C; 18 hours at 37° C; read-out: MIC
Method in brief: as §1

Staph. aureus Russell = test: as above; assay type: cell-based; conditions: Staphylococcus aureus; human; Staph. aureus Russell; 18 hours at 37° C; read-out: MIC
Method in brief: as §1

[3] = test system: Pasteurella multocida 1633; test: as above; assay type: cell-based; conditions: human; Pasteurella multocida 1633; 18 hours at 37° C; read-out: MIC
Method in brief: as §1

P. mirabilis 889 = test: as above; assay type: cell-based; conditions: Proteus mirabilis; human; P. mirabilis 889; 18 hours at 37° C; read-out: MIC
Method in brief: as §1

[4] = test system: Erysipelothrix rhusiopathiae NCTC 8163; test: MIC against veterinary bacteria in vitro (Diagnostic Sensitivity Test Agar); conditions: NCTC8163, 18 h
Method: as §2

[5] = test system: M. hyopneumoniae ATCC 25095; test: MIC against Mycoplasma in vitro (Friis broth with agarose); assay type: cell-based; conditions: Mesomycoplasma hyopneumoniae, ATCC25095, 144 h; M. hyopneumoniae ATCC 25095; 6 days at 37° C; read-out: MIC
M. hyopneumoniae JF 435 = test: as above; assay type: cell-based; conditions: Mesomycoplasma hyopneumoniae, JF435, 144 h; M. hyopneumoniae JF 435; 6 days at 37° C; read-out: MIC
M. hyopneumoniae UCD 1 = test: as above; assay type: cell-based; conditions: Mesomycoplasma hyopneumoniae, UCD1, 144 h; M. hyopneumoniae UCD 1; 6 days at 37° C; read-out: MIC
[6] = test system: Corynebacterium pyogenes CY1; test: MIC against veterinary bacteria in vitro (Diagnostic Sensitivity Test Agar); conditions: CY1, 18 h
Method: as §2

E. coli E1 = test: as above; conditions: Escherichia coli, E1, 18 h
Method: as §2

M. hyopneumoniae Str. 11 = test: MIC against Mycoplasma in vitro (Friis broth with agarose); assay type: cell-based; conditions: Mesomycoplasma hyopneumoniae, 144 h; M. hyopneumoniae Str. 11; 6 days at 37° C; read-out: MIC
[7] = test system: M. hyopneumoniae NCTC 101101; test: as above; assay type: cell-based; conditions: Mesomycoplasma hyopneumoniae, NCTC101101, 144 h; M. hyopneumoniae NCTC 101101; 6 days at 37° C; read-out: MIC
M. hyopneumoniae MS 16 = test: as above; assay type: cell-based; conditions: Mesomycoplasma hyopneumoniae, MS16, 144 h; M. hyopneumoniae MS 16; 6 days at 37° C; read-out: MIC
M. pneumoniae ATCC 15492 = test: as above; assay type: cell-based; conditions: Mycoplasmoides pneumoniae, ATCC15492, 144 h; M. pneumoniae ATCC 15492; 6 days at 37° C; read-out: MIC
Bord. bronchiseptica B08 = test: MIC against veterinary bacteria in vitro (Diagnostic Sensitivity Test Agar); conditions: Bordetella bronchiseptica, B08, 18 h
Method: as §2

[8] = test system: Staph. aureus 152 (pen. sens); test: as above; conditions: Staphylococcus aureus, 18 h
Method: as §2

Strep. uberis SPU1 = test: as above; conditions: Streptococcus uberis, SPU1, 18 h
Method: as §2

With CC(=Cc1nnc(-c2ccc(S(C)(=O)=O)cc2)o1)CC1OCC(CC2OC2C(C)C(C)O)C(O)C1O (stereo not shown) [Example 4, 2-p-Methylsulphonylphenyl-5-(1-normon-2-yl)-1,3,4-oxadiazole A] the MIC (M. hyorhinis ATCC 25021) was 0.1 µg/mL (≈ 0.191 µM), the MIC (M. gallisepticum S6) was > 10 µg/mL and the MIC (Past. multocida PA1) was 2.5 µg/mL (≈ 4.78 µM). For the same compound, the MIC (M. bovis NCTC 10131) was 0.05 µg/mL (≈ 0.0957 µM), the MIC (M. hyorhinis ATCC 23234) was 0.1 µg/mL (≈ 0.191 µM) and the MIC [1] was 0.5 µg/mL (≈ 0.957 µM). The MIC (Past. multocida PA2) was 1.25 µg/mL (≈ 2.39 µM), the MIC [2] was > 64 µg/mL and the MIC (Strep. faecalis I) was > 64 µg/mL. For the same compound, the MIC (Strep. agalactiae 2788-B) was 16 µg/mL (≈ 30.6 µM), the MIC (Bacillus subtilis 6633) was 16 µg/mL (≈ 30.6 µM) and the MIC (Sarcina lutea 8340) was > 64 µg/mL. The MIC (Staph. aureus W2827) was 32 µg/mL (≈ 61.2 µM), the MIC (E. coli NCTC 10418) was > 64 µg/mL and the MIC (Strep. spp. 64/848-C) was 16 µg/mL (≈ 30.6 µM). The MIC (Staph. aureus Russell) was 32 µg/mL (≈ 61.2 µM), the MIC [3] was 4 µg/mL (≈ 7.65 µM) and the MIC (P. mirabilis 889) was > 64 µg/mL. It also gave an MIC [4] of 40 µg/mL (≈ 76.5 µM), an MIC [5] of 0.25 µg/mL (≈ 0.478 µM) and an MIC (M. hyopneumoniae JF 435) of 0.25 µg/mL (≈ 0.478 µM). The MIC (M. hyopneumoniae UCD 1) was 0.25 µg/mL (≈ 0.478 µM), the MIC [6] was > 80 µg/mL and the MIC (E. coli E1) was > 80 µg/mL. The MIC (M. hyopneumoniae Str. 11) was 0.25 µg/mL (≈ 0.478 µM), the MIC [7] was 0.5 µg/mL (≈ 0.957 µM) and the MIC (M. hyopneumoniae MS 16) was 0.1 µg/mL (≈ 0.191 µM). The MIC (M. pneumoniae ATCC 15492) was > 10 µg/mL, the MIC (Bord. bronchiseptica B08) was > 80 µg/mL and the MIC [8] was 5 µg/mL (≈ 9.57 µM). The MIC (Strep. uberis SPU1) was 2.5 µg/mL (≈ 4.78 µM).
